Peptide text beside a SMILES is read from it. * marks the point of attachment. Cbz = O=C(OCc1ccccc1)*
How the values were obtained:
Type in all cases: cell-based, mouse
[1] = system: DC2.4 cells; test: MHC class I cross-presentation by DC2.4 cells to OT-I CD8+ T cells (IL-2 ELISA); conditions: for effect on stimulation of OT-I CD8+ T cells by OVA (IL-2 production) / effect on stimulation of OT-I CD8+ T cells by SIINFEKL peptide (IL-2 production): FIG. 8b; for effect on stimulation of OT-I CD8+ T cells by OVA (IL-2 production): OVA 250 μg mL−1; for effect on stimulation of OT-I CD8+ T cells by SIINFEKL peptide (IL-2 production): SIINFEKL 10 ng mL−1
Excerpt: Whether knock-down of cellular components involved in ERAD decreases the cross-presentation of exogenous OVA antigen was examined using a system for evaluating the level of antigen presentation, which uses naive CD8^+ T cells from OT-I mice and DC2.4 cells. The DC2.4 cells used as a model of dendritic cells are of the H-2Kb mouse MHC class I haplotype. OT-I (H-2Kb) mice are transgenic mice expressing a T cell receptor (TCRα and β) that recognizes an antigenic peptide (SIINFEKL) (SEQ ID NO: 15) derived from OVA presented on the H-2Kb molecules. The CD8^+ cells of OT-I mice are activated when they recognize OVA peptides presented by BMDCs derived from H-2Kb mice or by DC2.4 cells. When OVA or bOVA is incubated with and affixed onto DC2.4 cells and the cells are further incubated with naive CD8^+ T cells of OT-I mice, the amount of IL-2 produced by OT-I CD8^+ T cells serves as an index of T-cell stimulation as a result of OVA antigen presented by DC2.4 cells.
Parental or knocked-down DC2.4 cells were pre-incubated in a culture medium supplemented with 50 μg mL^−1 polymyxin B for 30 minutes in the presence or absence of lactacystin or MG-132, and incubated with OVA (250 μg mL^−1) or SIINFEKL peptides (10 ng mL^−1) for six hours. The cells were washed, fixed with 1% paraformaldehyde, and aliquoted into microtiter plates (5×10^4 per well). 5×10^4 CD8^+ T cells purified from splenocytes of OT-1 mice using magnetic beads were added to each well and after a 24-hour incubation, the IL-2 secretion was measured by ELISA (BD Biosciences) in triplicate.
DC2.4 cells were incubated with OVA (0, 50, or 250 μg/mL) in RPMI1640/10c% FCS for six hours at 37° C., in the presence or absence of pig-derived HSP90 (10 μg/mL). After washing away the antigen and HSP, OT-I CD8^+ T cells were added, cells were cultured overnight at 37° C., and the amount of IL-2 comprised in the supernatant was measured by the ELISA method.
The timing of the addition of HSP90 (10 μg/mL) and OVA (250 μg/mL) to DC2.4 cells was varied, and the effect on class I antigen presentation was observed. (i) HSP90 was added first, DC2.4 cells were washed, and then OVA was added. (ii) HSP90 and OVA were added simultaneously to DC2.4 cells. (iii) OVA was added first, and after washing DC2.4 cells, HSP90 was added. The results obtained under these three conditions were compared. As a control for all these conditions, an experiment in which only OVA, but not HSP90, was added was also carried out.
Under condition (i), HSP90 was added to DC2.4 cells, the cells were cultured for 30 minutes and then washed to remove HSP90. Next, OVA was added and the cells were cultured for three hours. Thereafter, OVA was removed by washing, and cells were cultured in just the culture medium for three hours. DC2.4 cells activated with OVA by the above procedure were plated in a 96-well plate, OT-I mouse-derived CD8^+ T cells were added to this, and after culturing overnight, the amount of IL-2 released into the supernatant was measured by ELISA.
Under condition (ii), OVA and HSP90 were added simultaneously to DC2.4 cells, cells were cultured for three hours, then washed, and cultured in just the culture medium for three hours. Thereafter, the procedures to investigate the activation of OT-I mouse-derived CD8^+ T cells was carried out similarly to in (i) above.
Under condition (iii), OVA was first added to DC2.4 cells, cells were cultured for three hours, and then washed to remove OVA. Next, HSP90 was added, and the cells were cultured for another three hours. The procedures that follow were carried out similarly to that of (i) and (ii). Meanwhile, timings were set such that the incubation times during the stage in which cells are in contact with OVA and the stage at which OVA has been taken up were the same under conditions (i) to (iii).

[2] = system: DC2.4 cells; test: Degradation of cell-bound bOVA in DC2.4 cells (pulse-chase, SA beads, Western blot); conditions: for effect on decrease (degradation) of cell-bound bOVA: DC2.4 cells incubated with bOVA one hour, chased up to four hours, inhibitor present; for effect on degradation of bOVA taken up into cells: FIG. 1b; for effect on degradation of accumulated bOVA (ERAD inhibition): DC2.4 cells pulsed with bOVA in the presence of MG-132, chased four hours; for effect on bOVA degradation: FIG. 4b
Description: Next, DC2.4 cells were incubated with bOVA for one hour, and this was then chased for up to four hours. Cell-bound bOVA was recovered from total cell lysates by streptavidin-agarose and separated by SDS-PAGE.
Depletion of Ca^2+ in the ER is known to inhibit ERAD. Thapsigargin (Tg) is known to decrease the Ca^2+ concentration in the ER lumen by binding to the ER membrane and functioning as an ionophore and to inhibit ERAD. Thus, in the presence of Tg, bOVA degradation by ERAD is predicted to be suppressed. DC2.4 cells were pulsed with bOVA in the presence of MG-132, then washed with PBS or with PBS containing 1 mM EGTA, and then chased for four hours.
Furthermore, the effect of tunicamycin treatment on bOVA accumulation was examined. When cells are treated with tunicamycin (Tm), N-type glycosylation is inhibited, and abnormally folded proteins accumulate in the ER lumen.

[3] = system: DC2.4 cells; test: MHC class II antigen presentation by DC2.4 cells to OT-II CD4+ T cells (IL-2 production); conditions: DC2.4 cells pretreated in the presence of NH4Cl, cultured with OVA
Description: DC2.4 cells pretreated in the presence of NH4Cl were cultured with OVA, and then the stimulation of OT-I CD8^+ T cells in response to MHC class I antigen presentation (circles) and stimulation of OT-II CD4^+ T cells in response to MHC class II antigen presentation (triangles) was determined by measuring IL-2 production levels. IL-2 production level in the presence of NH4Cl was expressed as a ratio relative to the control (IL-2 production was 700 pg/mL relative to OT-I, and 20 pg mL relative to OT-II).

## CC(C)C[C@@H](C=O)NC(=O)[C@H](CC(C)C)NC(=O)[C@H](CC(C)C)NC(=O)OCc1ccccc1 [MG-132, reference compound] (Cbz-Leu-Leu-Leu-aldehyde)
[1]; MG-132 25 μM
  effect on stimulation of OT-I CD8+ T cells by OVA (IL-2 production): suppressed stimulation by OVA
  effect on stimulation of OT-I CD8+ T cells by SIINFEKL peptide (IL-2 production): did not suppress stimulation by the SIINFEKL peptide
[2]
  effect on decrease (degradation) of cell-bound bOVA: this decrease was blocked
[2]; MG-132 10 μM
  effect on degradation of bOVA taken up into cells: reduced the degradation of bOVA taken up into cells

## Cl.N [NH4Cl, Ammonium chloride, reference compound]
[1]; DC2.4 cells pretreated with inhibitor, cultured with OVA
  effect on presentation of OVA antigen with MHC class I to OT-I CD8+ T cells: did not reduce the presentation of the OVA antigen with MHC class I
[3]
  effect on presentation of OVA antigen with MHC class II to OT-II CD4+ cells: inhibited the presentation with MHC class II
[2]
  effect on decrease (degradation) of cell-bound bOVA: did not significantly affect bOVA degradation
[2]; NH4Cl 50 mM
  effect on degradation of bOVA taken up into cells: did not reduce this degradation

## CC(=O)N[C@@H](CSC(=O)[C@]1([C@@H](O)C(C)C)NC(=O)[C@H](C)[C@@H]1O)C(=O)O [lactacystin, reference compound]
[1]; Lactastatin 10 μM
  effect on stimulation of OT-I CD8+ T cells by OVA (IL-2 production): suppressed stimulation by OVA
  effect on stimulation of OT-I CD8+ T cells by SIINFEKL peptide (IL-2 production): did not suppress stimulation by the SIINFEKL peptide
[2]
  effect on decrease (degradation) of cell-bound bOVA: this decrease was blocked
[2]; lactastatin 2 μM
  effect on degradation of bOVA taken up into cells: reduced the degradation of bOVA taken up into cells

## C/C=C(/C)C(=O)O[C@H]1C(C)=C2[C@H]([C@@H]1OC(=O)CCCCCCC)[C@@](C)(OC(C)=O)C[C@H](OC(=O)CCC)[C@@]1(O)[C@H]2OC(=O)[C@@]1(C)O [thapsigargin, Thapsigargin]
[2]
  effect on degradation of accumulated bOVA (ERAD inhibition): inhibited the degradation of accumulated bOVA
[2]; thapsigargin 300 nM
  effect on bOVA degradation: bOVA degradation is inhibited

## tunicamycin
[2]
  effect on degradation of accumulated bOVA (ERAD inhibition): bOVA degradation was inhibited
[2]; tunicamycin 2 g
  effect on bOVA degradation: bOVA degradation is inhibited
